Reference: US6930103B2, “Use of vasopeptidase inhibitors in the treatment of metabolic diseases, nephropathy and advanced glycation end-product associated diseases” (Aventis Pharma Deutschland GmbH, priority 2002, dated 2005)

Tests used:
Goto-Kakizaki (GK) rats = test: Albumin and creatinine excretion in Goto-Kakizaki (GK) rats; assay type: in vivo, rat; conditions: start at age 6 months, mean
Experimental: The albumin and creatinine excretion in Goto-Kakizaki (GK) rats was determined. GK rats are a model for Type II diabetes. One group was left untreated, one was treated with the ACE/NEP inhibitor of formula (II-B) and one group was treated with the ACE inhibitor ramipril. [table]

[1] = test system: Zucker Diabetic Fatty (ZDF) Rats (ZDF Gmi fa/fa); test: Urinary excretion of albumin and creatinine in ZDF rats treated from 10 to 37 weeks of age; assay type: in vivo, rat; conditions: ZDF rats, mean
Experimental: (§1) The protein and creatinine excretion in the urine of male Zucker Diabetic Fatty (ZDF) Rats (ZDF Gmi fa/fa) and heterozygous control animals (ZDF Gmi −/+) of 10, 17, 27 and 37 weeks age was determined. In further groups, diabetic rats were chronically given either ramipril (1 mg/kg/day, in drinking water) or a compound of formula (II-B) (30 mg/kg/day, in food) over a period from 10 to 37 weeks. The animals were sacrificied after 37 weeks, and their kidneys examined histologically.

fat ZDF rats = test: Histological examination of kidneys of ZDF rats after 6 months treatment; assay type: in vivo, rat; design: Armanni-Ebstein cells MEAN SEVERITY / Glomerulosclerosis MEAN SEVERITY / Atrophy: renal tubule MEAN SEVERITY / Casts: renal tubule MEAN SEVERITY: scale not given here
Experimental: as §1
In the attached tables a summary of the findings on the kidneys after a treatment period of 6 months is listed.

[2] = test system: Zucker diabetic fatty rats; test: HbA1c analysis in ZDF rats; assay type: in vivo, rat; conditions: for HbA1c, mean: ZDF rats
Experimental: (§2) Blood glucose and HbA1c was measured in 10- and 17-week-old male Zucker diabetic fatty rats (Genetic Model Inc.), control rats (Genetic Model Inc.) and male ZDF rats treated for seven weeks with 30 mg/kg/d of compound (II-B), 35 mg/kg/d of compound (III-B) and 1 mg/kg/d ramipril. Fifteen animals were analyzed in each group.
To obtain blood samples for HbA1c determination, disposable capillary tubes were used. HbA1c values were obtained from hemolyzed whole blood samples with a turbidimetric inhibition immunoassay (Tina-quant, Roche Diagnostics GmbH) and hemoglobin concentrations were determined in a second channel on an automated clinical chemistry analyzer (Boehringer Mannheim/Hitachi 912). HbA1c concentration in percent were calculated from HbA1c to total hemoglobin.

endothelial cells = test: NO and superoxide release from endothelial cells in rabbits fed an atherogenic diet; assay type: in vivo, White New Zealand rabbits; conditions: varied diet rabbits; mean ± SEM
Source text: (§3) It was shown in the atherogenic rabbit model (White New Zealand rabbits were fed with 0.25% cholesterol plus 3% coconut oil) that even a short 6 week period of an atherogenic diet leads to sustained endothelial dysfunction, even though the animals received a normal diet for 3 months thereafter.
The endothelium-dependent relaxation of isolated aortic rings of rabbits as well as the release of nitric oxide and superoxide from endothelial cells serve as measures of endothelial dysfunction.
• Groups: • Standard: 18 weeks normal diet • Atherogenic: 18 weeks atherogenic diet (3% Coconut oil+0.25% Cholesterol) • Varied diet (Var.): 6 weeks atherogenic diet+12 weeks normal diet • Varied Diet+ramipril: 6 weeks atherogenic diet+12 weeks normal diet+ramipril • Varied diet+compound (II-B): 6 weeks atherogenic diet+12 weeks normal diet+cpd. (II-B)
NO and O2^− are markers for endothelial function: increased relaxation and increased NO levels are beneficial, while increased O2^− formation inhibits the beneficial effects of NO.

Wistar rats = test: Albumin and creatinine excretion in Wistar rats (non-diabetic nephropathy); assay type: in vivo, rat; conditions: Wistar rats, start at age 6 months, mean
Experimental: The albumin and creatinine excretion in Wistar rats was determined. One group was left untreated, one was treated with the ACE/NEP inhibitor of formula (II-B) and one group was treated with the ACE inhibitor ramipril. Wistar rats are non-diabetic and develop proteinuria and structural kidney damage during adult life. Wistar rats are therefore a model for non-diabetic nephropathy. [table]

[3] = test system: isolated aortic rings of rabbits; test: Relaxation of aortic rings by acetylcholine in rabbits fed an atherogenic diet; assay type: in vivo, White New Zealand rabbits; conditions: varied diet rabbits, mean ± SEM
Source text: as §3, with “thereafter. […] The endothelium-dependent relaxation of isolated aortic rings of rabbits as well as the release of nitric oxide and superoxide from endothelial cells serve as measures of endothelial dysfunction. […] (II-B) [table]” for “thereafter.”

ZDF rats = test: Urinary albumin/creatinine in ZDF rats, treatment starting at an animal age of 6 months; assay type: in vivo, rat; conditions: start at age 6 months, mean
[4] = test system: Zucker diabetic fatty rats; test: Blood glucose analysis in ZDF rats; assay type: in vivo, rat; conditions: for blood glucose, mean: ZDF rats
Experimental: as §2
Blood samples for glucose determination were obtained from ZDF rats using standard sampling tubes. Within 30 minutes of collection, samples were separated from the cells by centrifugation. Quantitative determination of blood glucose in serum was performed with an enzymatic in vitro test from Roche Diagnostics GmbH (Gluco-quant, Roche Diagnostics GmbH) using the automated clinical chemistry analyzer Boehringer Mannheim/Hitachi 912.

[5] = acute treatment; Chen et al., Hypertension 2001; cited from earlier work
[6] = kidneys, male fat ZDF rats, terminal sacrifice
[7] = kidneys, male fat ZDF rats, terminal sacrifice, examined: D1 9, D4 8
[8] = age 10 weeks (start of treatment)
[9] = age 17 weeks (treated for seven weeks)

## CCOC(=O)[C@H](CCc1ccccc1)N[C@@H](C)C(=O)N1[C@H](C(=O)O)C[C@@H]2CCC[C@@H]21 [ramipril, reference compound]
Goto-Kakizaki (GK) rats; 6 weeks treatment
  Albumin/Creatinine: 161.71 mg/mmol
Goto-Kakizaki (GK) rats; 12 weeks treatment
  Albumin/Creatinine: 244.89 mg/mmol
Goto-Kakizaki (GK) rats; Basal
  Albumin/Creatinine: 103.95 mg/mmol
[1]; week 0 of treatment
  Urine excretion Albumin: 0.24 mg/kg/h
  Urine excretion Albumin/Creatinine: 37.31 mg/mmol
[1]; week 7 of treatment
  Urine excretion Albumin: 1.36 mg/kg/h
  Urine excretion Albumin/Creatinine: 207.35 mg/mmol
[1]; week 17 of treatment
  Urine excretion Albumin: 6.26 mg/kg/h
  Urine excretion Albumin/Creatinine: 694.20 mg/mmol
[1]; week 27 of treatment
  Urine excretion Albumin: 10.11 mg/kg/h
  Urine excretion Albumin/Creatinine: 1077.88 mg/mmol
Fat ZDF rats; in words
  Incidence of glomerulosclerosis or associated degenerative lesions compared to fat ZDF controls: no differences
Fat ZDF rats; [6]
  Armanni-Ebstein cells GRADE 1: number of animals: 1
  Armanni-Ebstein cells GRADE 2: number of animals: 6
  Armanni-Ebstein cells MEAN SEVERITY: 1.9
  Atrophy: renal tubule GRADE 1: number of animals: 4
  Atrophy: renal tubule GRADE 2: number of animals: 4
  Atrophy: renal tubule GRADE 3: number of animals: 1
  Atrophy: renal tubule MEAN SEVERITY: 1.7
  Casts: renal tubule GRADE 1: number of animals: 1
  Casts: renal tubule GRADE 2: number of animals: 7
  Casts: renal tubule MEAN SEVERITY: 1.9
  Dilatation: pelvis GRADE 2: number of animals: 1
  Dilatation: pelvis GRADE 3: number of animals: 2
  Dilatation: pelvis GRADE 4: number of animals: 2
  Dilatation: pelvis MEAN SEVERITY: 3.2
  Glomerulosclerosis GRADE 2: number of animals: 4
  Glomerulosclerosis GRADE 3: number of animals: 2
  Glomerulosclerosis MEAN SEVERITY: 2.3
Fat ZDF rats; [7]
  Armanni-Ebstein cells: number of animals with finding (total affected): 7
  Atrophy: renal tubule: number of animals with finding (total affected): 9
  Casts: renal tubule: number of animals with finding (total affected): 8
  Dilatation: pelvis: number of animals with finding (total affected): 5
  Glomerulosclerosis: number of animals with finding (total affected): 6
[2]; 17-week-old ZDF rats, in words
  HbA1c values compared to the untreated ZDF rats: No significant difference
[2]; [8]
  HbA1c, mean: 5.66%
[2]; [9]
  HbA1c, mean: 9.48%
Endothelial cells
  NO: 368.31 ± 42.25 nM
  O2^− (superoxide): 48.09 ± 7.91 nM
Wistar rats; 6 weeks treatment
  Albumin/Creatinine: 184.27 mg/mmol
Wistar rats; 12 weeks treatment
  Albumin/Creatinine: 188.40 mg/mmol
Wistar rats; Basal
  Albumin/Creatinine: 130.45 mg/mmol
[3]; ACh 10^−5 mol/L after phenylephrine 10^−7 mol/L
  Relaxation of aortic rings by acetylcholine: 83.73 ± 4.03%
[3]; ACh 10^−6 mol/L after phenylephrine 10^−7 mol/L
  Relaxation of aortic rings by acetylcholine: 77.34 ± 3.7%
[3]; ACh 10^−7 mol/L after phenylephrine 10^−7 mol/L
  Relaxation of aortic rings by acetylcholine: 51.86 ± 4.43%
[3]; ACh 10^−8 mol/L after phenylephrine 10^−7 mol/L
  Relaxation of aortic rings by acetylcholine: 13.08 ± 2.22%
ZDF rats; 6 weeks treatment
  Albumin/Creatinine: 1249.59 mg/mmol
ZDF rats; 12 weeks treatment
  Albumin/Creatinine: 841.69 mg/mmol
ZDF rats; Basal
  Albumin/Creatinine: 1330.99 mg/mmol
[4]; 17-week-old ZDF rats, in words
  Blood glucose concentration compared to the untreated ZDF rats: No significant difference
[4]; [8]
  blood glucose, mean: 11.74 mM
[4]; [9]
  blood glucose, mean: 27.33 mM

## O=C(N[C@H]1CCS[C@H]2CCC[C@@H](C(=O)O)N2C1=O)[C@@H](S)Cc1ccccc1 [omapatrilat]
[5]
  Natriuretic response compared with ACE inhibitor fosinoprilat: greater natriuretic response
